Assay results taken from the supplement of paper PMC12533247.

Assays:
[1] = system: HSV-1 K26-GFP infected 3D skin equivalent; experiment: % activity on HSV-1 GFP signal (0 = infected DMSO control, -100 = uninfected control); higher = higher signal (negative = inhibition / toxicity); details: time (h post infection): 48
Experimental: (§1)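 Triplicate dose-response (0.04 to 10 uM) of 11 top compounds in 3D bioprinted skin equivalents (submerged and ALI models) infected with GFP-HSV-1 K26 at MOI 0.1 and fixed at 48 hpi. GFP (virus) and tdTomato (fibroblast viability) signals are normalised to per-plate controls.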

[2] = system: HSV-1 K26-GFP infected 3D skin equivalent; experiment: % change of tdTomato fibroblast signal relative to infected DMSO control; higher = higher signal (negative = inhibition / toxicity); details: time (h post infection): 48
Experimental: as §1

[3] = system: primary dermal fibroblasts; experiment: % change in live cells vs DMSO control; higher = less cytotoxic; details: time (h post treatment): 48
Experimental: (§2)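 Cytotoxicity in uninfected 2D primary donor keratinocytes (20 h post treatment) and fibroblasts (48 h post treatment), measured with NucSpot live/dead dyes on IncuCyte. Live cells are normalised to the 0.2% DMSO control and shown as % change. Three biological replicates for each of donors 3, 4 and 5.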

primary keratinocytes = experiment: as above; details: time (h post treatment): 20
Experimental: as §2

[4] = system: HSV-1 K26-GFP infected primary human skin cells; experiment: % change of HSV-1 GFP signal vs untreated infected cells; higher = less antiviral inhibition; details: cell type: primary dermal fibroblasts, time (h post infection): 48
Experimental: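 2D primary donor-derived dermal fibroblasts infected with GFP-HSV-1 K26 at MOI 1, treated 1 h later with compound dilutions and read at 48 hpi on IncuCyte. GFP integrated intensity is normalised to mock-infected and untreated infected wells (% change; -100 = full inhibition).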

C=CC(=O)N1CC/C(=C\c2ccc(F)c([N+](=O)[O-])c2)C(=O)/C(=C/c2ccc(F)c([N+](=O)[O-])c2)C1 [VLX1570]
Details | % activity on HSV-1 GFP signal, [1] [%] | % change in live cells, [3] [%] | % change in live cells, primary keratinocytes [%] | % change of tdTomato fibroblast signal, [2] [%]
0.041152 µM, model: ALI | 12.8 | – | – | -0.238
0.041152 µM, model: submerged | -7.34 | – | – | 0.174
0.082305 µM, donor: 3 | – | -13 | -11.3 | –
0.082305 µM, donor: 4 | – | 2.33 | -13.3 | –
0.082305 µM, donor: 5 | – | 2 | -6.33 | –
0.123457 µM, model: ALI | -18.6 | – | – | -3.26
0.123457 µM, model: submerged | -4.05 | – | – | -4.91
0.246914 µM, donor: 3 | – | -15.3 | -24 | –
0.246914 µM, donor: 4 | – | 0 | -18 | –
0.246914 µM, donor: 5 | – | 4.67 | -10 | –
0.37037 µM, model: ALI | -96 | – | – | -1.14
0.37037 µM, model: submerged | -5.03 | – | – | -4.63
0.740741 µM, donor: 3 | – | -24 | -37.7 | –
0.740741 µM, donor: 4 | – | -1.33 | -13 | –
0.740741 µM, donor: 5 | – | 4.33 | -11 | –
1.111111 µM, model: ALI | -97.3 | – | – | -12.1
1.111111 µM, model: submerged | -4.45 | – | – | -15
2.22222 µM, donor: 3 | – | -46.7 | -54 | –
2.22222 µM, donor: 4 | – | -3 | -9.33 | –
2.22222 µM, donor: 5 | – | -1.67 | -10.7 | –
3.33333 µM, model: ALI | -103 | – | – | -17.4
3.33333 µM, model: submerged | -17.6 | – | – | -33.6
6.66667 µM, donor: 3 | – | -100 | -58.3 | –
6.66667 µM, donor: 4 | – | -3 | -66 | –
6.66667 µM, donor: 5 | – | -20.7 | -39 | –
10 µM, model: ALI | -101 | – | – | -25.4
10 µM, model: submerged | -55.5 | – | – | -48
20 µM, donor: 3 | – | -101.3 | -85.3 | –
20 µM, donor: 4 | – | -44 | -70 | –
20 µM, donor: 5 | – | -98 | -74.7 | –
60 µM, donor: 3 | – | -98.7 | -95 | –
60 µM, donor: 4 | – | -116 | -99.33 | –
60 µM, donor: 5 | – | -96.7 | -97.67 | –

O=C(/C=C\n1cnc(-c2cc(C(F)(F)F)cc(C(F)(F)F)c2)n1)NNc1ccccn1 [Verdinexor]
Details | % activity on HSV-1 GFP signal [%] | % change in live cells [%] | % change of HSV-1 GFP signal [%] | % change of tdTomato fibroblast signal [%]
[1], 0.041152 µM, model: ALI | 22.5 | – | – | –
[1], 0.041152 µM, model: submerged | -2.17 | – | – | –
[1], 0.123457 µM, model: ALI | -30.1 | – | – | –
[1], 0.123457 µM, model: submerged | -37 | – | – | –
[1], 0.37037 µM, model: ALI | -82.5 | – | – | –
[1], 0.37037 µM, model: submerged | -41.1 | – | – | –
[1], 1.111111 µM, model: ALI | -92.6 | – | – | –
[1], 1.111111 µM, model: submerged | -56.4 | – | – | –
[1], 3.33333 µM, model: ALI | -105 | – | – | –
[1], 3.33333 µM, model: submerged | -65.7 | – | – | –
[1], 10 µM, model: ALI | -108 | – | – | –
[1], 10 µM, model: submerged | -68.6 | – | – | –
[2], 0.041152 µM, model: ALI | – | – | – | 8.09
[2], 0.041152 µM, model: submerged | – | – | – | 8.73
[2], 0.123457 µM, model: ALI | – | – | – | -4.16
[2], 0.123457 µM, model: submerged | – | – | – | -8.13
[2], 0.37037 µM, model: ALI | – | – | – | -13.3
[2], 0.37037 µM, model: submerged | – | – | – | -4.26
[2], 1.111111 µM, model: ALI | – | – | – | -11.7
[2], 1.111111 µM, model: submerged | – | – | – | -2.44
[2], 3.33333 µM, model: ALI | – | – | – | -19.1
[2], 3.33333 µM, model: submerged | – | – | – | -1.43
[2], 10 µM, model: ALI | – | – | – | -6.29
[2], 10 µM, model: submerged | – | – | – | -5.83
[3], 0.082305 µM, donor: 3 | – | -24 | – | –
[3], 0.082305 µM, donor: 4 | – | -8.33 | – | –
[3], 0.082305 µM, donor: 5 | – | -0.667 | – | –
[3], 0.246914 µM, donor: 3 | – | -20.3 | – | –
[3], 0.246914 µM, donor: 4 | – | -9.67 | – | –
[3], 0.246914 µM, donor: 5 | – | -6.33 | – | –
[3], 0.740741 µM, donor: 3 | – | -22.3 | – | –
[3], 0.740741 µM, donor: 4 | – | -14 | – | –
[3], 0.740741 µM, donor: 5 | – | -10.7 | – | –
[3], 2.22222 µM, donor: 3 | – | -23.3 | – | –
[3], 2.22222 µM, donor: 4 | – | -9.67 | – | –
[3], 2.22222 µM, donor: 5 | – | -15.7 | – | –
[3], 6.66667 µM, donor: 3 | – | -24.7 | – | –
[3], 6.66667 µM, donor: 4 | – | -11 | – | –
[3], 6.66667 µM, donor: 5 | – | -18.7 | – | –
[3], 20 µM, donor: 3 | – | -27.7 | – | –
[3], 20 µM, donor: 4 | – | -13.3 | – | –
[3], 20 µM, donor: 5 | – | -23.7 | – | –
[3], 60 µM, donor: 3 | – | -40.3 | – | –
[3], 60 µM, donor: 4 | – | -31.3 | – | –
[3], 60 µM, donor: 5 | – | -44 | – | –
[4], 0.001 µM, donor: 3 | – | – | 2.8 | –
[4], 0.001 µM, donor: 4 | – | – | -3.59 | –
[4], 0.003 µM, donor: 3 | – | – | 3.24 | –
[4], 0.003 µM, donor: 4 | – | – | -6.87 | –
[4], 0.0091 µM, donor: 3 | – | – | 5.63 | –
[4], 0.0091 µM, donor: 4 | – | – | -5.59 | –
[4], 0.0274 µM, donor: 3 | – | – | 3.47 | –
[4], 0.0274 µM, donor: 4 | – | – | -11.5 | –
[4], 0.0823 µM, donor: 3 | – | – | -1.6 | –
[4], 0.0823 µM, donor: 4 | – | – | -10.8 | –
[4], 0.2469 µM, donor: 3 | – | – | -1.84 | –
[4], 0.2469 µM, donor: 4 | – | – | -12 | –
[4], 0.7407 µM, donor: 3 | – | – | -13.6 | –
[4], 0.7407 µM, donor: 4 | – | – | -15.2 | –
[4], 2.2222 µM, donor: 3 | – | – | -31.7 | –
[4], 2.2222 µM, donor: 4 | – | – | -33.3 | –
[4], 6.6667 µM, donor: 3 | – | – | -34.8 | –
[4], 6.6667 µM, donor: 4 | – | – | -32.3 | –
[4], 20 µM, donor: 3 | – | – | -49 | –
[4], 20 µM, donor: 4 | – | – | -21.8 | –
primary keratinocytes, 0.082305 µM, donor: 3 | – | -11 | – | –
primary keratinocytes, 0.082305 µM, donor: 4 | – | -9 | – | –
primary keratinocytes, 0.082305 µM, donor: 5 | – | -5.67 | – | –
primary keratinocytes, 0.246914 µM, donor: 3 | – | -23.3 | – | –
primary keratinocytes, 0.246914 µM, donor: 4 | – | -17 | – | –
primary keratinocytes, 0.246914 µM, donor: 5 | – | -12.7 | – | –
primary keratinocytes, 0.740741 µM, donor: 3 | – | -38.7 | – | –
primary keratinocytes, 0.740741 µM, donor: 4 | – | -12 | – | –
primary keratinocytes, 0.740741 µM, donor: 5 | – | -16.7 | – | –
primary keratinocytes, 2.22222 µM, donor: 3 | – | -44.3 | – | –
primary keratinocytes, 2.22222 µM, donor: 4 | – | -32 | – | –
primary keratinocytes, 2.22222 µM, donor: 5 | – | -23.3 | – | –
primary keratinocytes, 6.66667 µM, donor: 3 | – | -60.3 | – | –
primary keratinocytes, 6.66667 µM, donor: 4 | – | -42.3 | – | –
primary keratinocytes, 6.66667 µM, donor: 5 | – | -31.7 | – | –
primary keratinocytes, 20 µM, donor: 3 | – | -68.3 | – | –
primary keratinocytes, 20 µM, donor: 4 | – | -74.7 | – | –
primary keratinocytes, 20 µM, donor: 5 | – | -74 | – | –
primary keratinocytes, 60 µM, donor: 3 | – | -75.3 | – | –
primary keratinocytes, 60 µM, donor: 4 | – | -86.7 | – | –
primary keratinocytes, 60 µM, donor: 5 | – | -82 | – | –
